Where a name gives a salt, the structure may show the parent alone.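 Method: 48-hour compound exposure of cells in 96-well plates, five concentrations, linear interpolation of endpoints. GI50 = concentration required for 50% inhibition of growth.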 Active and inactive are the calls of the source. No stated cut-off is given here; in the data, active = GI50 up to about 1.1 µM and inactive = higher.
How the values were obtained:
Experiment in all cases: NCI-60 cell line screen, 48 h
SK-MEL-2 = system: SK-MEL-2
SF-539 = system: SF-539
CCRF-CEM = system: CCRF-CEM
SNB-19 = system: SNB-19
OVCAR-3 = system: OVCAR-3
SF-268 = system: SF-268
MOLT-4 = system: MOLT-4
RPMI-8226 = system: RPMI-8226
SK-MEL-5 = system: SK-MEL-5
SNB-75 = system: SNB-75
TK-10 = system: TK-10
COLO 205 = system: COLO 205
M14 = system: M14
T47D = system: T47D
CAKI-1 = system: CAKI-1
U-251 = system: U-251
A498 = system: A498
NCI/ADR-RES = system: NCI/ADR-RES
UO-31 = system: UO-31
OVCAR-4 = system: OVCAR-4

Compound | GI50 (SK-MEL-2) | GI50 (SF-539) | GI50 (CCRF-CEM) | GI50 (SNB-19) | GI50 (OVCAR-3) | GI50 (SF-268) | GI50 (MOLT-4) | GI50 (RPMI-8226) | GI50 (SK-MEL-5) | GI50 (SNB-75) | GI50 (TK-10) | GI50 (COLO 205) | GI50 (M14) | GI50 (T47D) | GI50 (CAKI-1) | GI50 (U-251) | GI50 (A498) | GI50 (NCI/ADR-RES) | GI50 (UO-31) | GI50 (OVCAR-4)
CN1CCN([C@H]2C[C@H]3[C@@H]4CC=C5C[C@@H](O)CC[C@]5(C)[C@H]4CC[C@]3(C)[C@H]2O)CC1 | > 83.9 µM (inactive) | 26.2 µM (inactive) | 25 µM (inactive) | > 45.5 µM (inactive) | > 42.1 µM (inactive) | > 41.7 µM (inactive) | 49.7 µM (inactive) | 23.9 µM (inactive) | 35.5 µM (inactive) | > 49.2 µM (inactive) | > 100 µM (inactive) | > 67.8 µM (inactive) | 17.5 µM (inactive) | > 47.4 µM (inactive) | > 100 µM (inactive) | 17.1 µM (inactive) | > 100 µM (inactive) | > 87.7 µM (inactive) | > 100 µM (inactive) | > 41.1 µM (inactive)
OC1C[C@H](c2ccccc2)C2(C(O)c3ccccc3C2O)[C@@H](c2ccccc2)C1 (stereo not given in full) | > 100 µM (inactive) | > 100 µM (inactive) | 99.1 µM (inactive) | > 100 µM (inactive) | > 100 µM (inactive) | > 100 µM (inactive) | > 100 µM (inactive) | 83.2 µM (inactive) | > 100 µM (inactive) | 53.7 µM (inactive) | > 100 µM (inactive) | > 100 µM (inactive) | > 100 µM (inactive) | > 100 µM (inactive) | > 100 µM (inactive) | > 100 µM (inactive) | > 100 µM (inactive) | 14.3 µM (inactive) | > 100 µM (inactive) | > 100 µM (inactive)
O=C1N(CN2CCOCC2)CN(CN2CCOCC2)C(=O)N1Cc1ccccc1 | 16.3 µM (inactive) | 19.2 µM (inactive) | 28.7 µM (inactive) | > 100 µM (inactive) | 23.9 µM (inactive) | 22 µM (inactive) | 20.1 µM (inactive) | 26.5 µM (inactive) | 19.4 µM (inactive) | 25.5 µM (inactive) | > 100 µM (inactive) | 20.1 µM (inactive) | 19.2 µM (inactive) | 30.3 µM (inactive) | 29.2 µM (inactive) | 23.3 µM (inactive) | > 100 µM (inactive) | 23.1 µM (inactive) | 28.1 µM (inactive) | 42.7 µM (inactive)
CCCC(=O)Nc1cc(C(=O)N2C[C@H]3C[C@@]34C2=CC(=O)c2[nH]cc(C)c24)n(COC)c1 | 0.293 µM (active) | 0.177 µM (active) | 0.014 µM (active) | 0.498 µM (active) | 0.0853 µM (active) | 0.103 µM (active) | 0.00879 µM (active) | 0.71 µM (active) | 0.0792 µM (active) | 0.248 µM (active) | 0.556 µM (active) | 0.442 µM (active) | 0.662 µM (active) | 0.109 µM (active) | 0.215 µM (active) | 0.114 µM (active) | 0.741 µM (active) | 0.656 µM (active) | 0.843 µM (active) | 0.783 µM (active)
CS(=O)(=O)OCCN(CCOS(C)(=O)=O)c1ccc(/C=N/c2ccc(-c3csc(COc4ccccc4)n3)cc2)cc1 | 15.7 µM (inactive) | 2.86 µM (inactive) | 0.587 µM (active) | 9.16 µM (inactive) | 1.24 µM (inactive) | 2.49 µM (inactive) | 0.271 µM (active) | 4.47 µM (inactive) | 10.7 µM (inactive) | 1.9 µM (inactive) | 3.05 µM (inactive) | 2.07 µM (inactive) | 5.6 µM (inactive) | 1.32 µM (inactive) | 0.853 µM (active) | 7.24 µM (inactive) | 2.6 µM (inactive) | 10.1 µM (inactive) | 0.65 µM (active) | 14.8 µM (inactive)
O=C1C=CC[C@H]2O[C@@H](COC(=O)Cc3ccccc3)C[C@H]2O1 | 51.5 µM (inactive) | 29.6 µM (inactive) | 41.4 µM (inactive) | 25.6 µM (inactive) | 38.6 µM (inactive) | 25 µM (inactive) | 25.4 µM (inactive) | 28.8 µM (inactive) | 49.7 µM (inactive) | 30.4 µM (inactive) | 25.9 µM (inactive) | 47.5 µM (inactive) | 31.7 µM (inactive) | 58.1 µM (inactive) | 38.5 µM (inactive) | > 10 µM (inactive) | > 100 µM (inactive) | 38 µM (inactive) | 32 µM (inactive) | 24 µM (inactive)
O=C1c2c(O)cccc2-c2nn(CCNCCO)c3ccc(NCCNCCO)c1c23 [LOSOXANTRONE HYDROCHLORIDE] | 0.436 µM (active) | 0.0288 µM (active) | < 0.01 µM (active) | < 0.0167 µM (active) | 0.598 µM (active) | 0.0316 µM (active) | < 0.01 µM (active) | 0.432 µM (active) | 0.0955 µM (active) | 0.047 µM (active) | 0.685 µM (active) | 0.158 µM (active) | 0.244 µM (active) | 0.105 µM (active) | 0.0552 µM (active) | 0.0122 µM (active) | < 0.0113 µM (active) | 8.28 µM (inactive) | 1.52 µM (inactive) | 0.605 µM (active)

Source: ChEMBL document CHEMBL1201862, “PubChem BioAssay data set” (2004)
